Laboratory results: patent US12016831B2, “Polidocanol for use as immunomodulating agent” (priority 2018, dated 2024)
Entries after “also recorded” stand apart in the source; their conditions may differ.

Columns and labels:
Assay type in all cases: in vivo, human
[1] = test system: individuals over 70 years old with a peripheral venous insufficiency; assay: Serum CRP levels in individuals over 70 years old with osteoarticular problems; settings: for CRP level: T2 (8 days)
Method: CRP levels in serum samples of individuals over 70 years old, chronically affected by osteoarticular problems, with or without pain, was also measured. CRP levels were measured within a group of 30 people, with a peripheral venous insufficiency. The subjects (23 females, 7 males) underwent sclerotherapy according to the invention. Then, CRP levels were measured at time 0 (beginning of treatment) at T1 (24 hours after treatment) and at T2 (8 days after treatment).

[2] = test system: healthy volunteer subjects; assay: Serum immunoglobulin and light chain levels after treatment
Method: (§1) The recruited patients had already been subjected to one or more polidocanol treatments, but had undergone a wash-out period of at least 4 months.
Levels of IgM, IgG, IgA and of light chains kappa/lambda, kappa and lambda were also measured.
(§2) Determinations a)-d) were carried out with Multiple Immunomagnetic Assay (Bio-Plex, Bio-Rad). Ig determinations were carried out with commercially available kits.

[3] = test system: healthy volunteer subjects; assay: Serum measurement of cytokines, chemokines and growth factors (Bio-Plex) after treatment
Method: as §1
Blood was then drawn at about 30′-1 hour (T1h), 1 day (T1), 7 days (T7) and 30 days (T30) after treatment, measuring the following serum parameters: • a) “Pro-inflammatory” cytokines: IL-1β, IL-6, IL-7, IL-12 (p70), IL-17, IFN-γ, TNF-α; • b) “Anti-inflammatory” cytokines: IL-1ra, IL-4, IL-5, IL-9, IL-13; • c) Chemokines: IL-8/CXCL8, IP-10/CXCL10, MIP-1α/CCL3, MIP-1β, RANTES/CCL5, Eotaxin/CCL11; • d) Growth factors: b-FGF, PDGF-bb, VEGF, G-CSF.
In a limited number of patients measurements 30 minutes and 3 hours after the treatment were carried out in order to identify short-term responses and assess possible acute inflammation indicators.
as §2
The determinations carried out were statistically analysed with the Friedman test and Dunns Multiple Comparison test. The most significant results are depicted in FIG. 1.

[4] = test system: patients suffering from venous insufficiency from minor to severe; assay: QoL survey (CIVIQ-20) after 3 or 4 treatments with diluted polidocanol
Method: A commercially available polidocanol solution (Atossisclerol®) was diluted to 0.05% with a physiological saline solution. A 1.4% sodium bicarbonate solution was then added in order to obtain a final concentration of 0.06%. The patients, 80% of which were female between 18 and 82 years of age suffering from venous insufficiency from minor to severe, were subjected to treatment after obtaining their free and informed consent.
Before the treatment, about 100 patients were subjected to a survey in order to assess their quality of life and to evaluate possible variations of the phlogistic/inflammatory overall state, of the venous microcirculation and circulation functionality, and also, more in general, of the skin trophism.
The long term systemic effects were evaluated via a survey given to patients after 3 or 4 treatments with diluted polidocanol.
In particular, they were asked to fill out a survey (CIVIQ-20) according to the criteria defined in Launois R. et al “Construction and validation of a quality of life questionnaire in chronic lower limb venous insufficiency (CIVIQ), Qual. Life Res., 1996, 5(6):539-554.
The survey contained the questions summarized hereinbelow, with answers indexed with values from 0 to 4 (0 if the feeling of discomfort described by the question was not applicable and from 1 to 4 if it was applicable with increasing intensity). Hereinbelow are collected the activities which turned out to be improved after the treatment: • 1) During the last 4 weeks have you felt pain in the hips or legs and with what intensity? In 14% of cases a decrease in hip pain was observed after treatment with polidocanol according to the invention. • 2) During the last 4 weeks have you had troubles in the routine work activities, due to troubles with the lower limbs? In 75% cases the patients could note a better condition during routine work activity • 3) During the last 4 weeks have you had troubles sleeping due to troubles with your legs? With what frequency? 37% better sleeping conditions. No troubles. • 4) During the last 4 weeks have you had troubles in the following activities due to troubles with your legs? • a. Remaining standing for a long time. Improves in 87% • b. Climbing several flights of stairs. • c. Crouching kneeling down. Improves • d. Walking at a brisk pace. • e. Traveling by car, bus, plane. Improves in 85% • f. Performing housekeeping tasks (ironing, walking around in the kitchen, etc.). Improves in 85% • g. Going out at night. Improves in 85% • h. Playing sports • 5) Given that troubles with the legs can also affect moods, it was asked if during the last 4 weeks they had noticed troubles such as: • a. Nervousness • b. Quick fatigue • c. Feeling of oppression • d. Excessive caution • e. Embarrassment in showing off the legs. Improves in 90% • f. Irritability • g. Feeling of being handicapped • h. Morning fatigue. Improves in 95% • i. Not feeling like going out. Improves in 75%.

[5] = 7 days post treatment (T7) vs basal

In the case of Polidocanol [diluted polidocanol], the “CRP levels vs time 0” value ([1]; T1 (24 hours after treatment), 30 people over 70) is reported as “did not show any variation”, the “individuals showing a notable reduction of CRP levels” value ([1]; T2 (8 days after treatment), 27 out of 30) is reported as 90% and the CRP level ([1]; case with starting CRP level 15 mg/l) is reported as 10 mg/L. For the same substance, the CRP level ([1]; case with starting CRP level 18 mg/l) was 9 mg/L, the CRP level ([1]; case with starting CRP level 27 mg/l) was 16 mg/L and the IgA level ([2]; T30 with respect to T7 and T0) was “decrease”. The IgG level ([2]; T30 with respect to T7 and T0) was “decrease”, the IgM level ([2]; T30 with respect to T7 and T0) was “decrease” and the light chains levels ([2]; T30 with respect to T7 and T0) was “decrease”. The “immunogenic effect (IgM and IgG levels)” value ([2]; after 7 and 30 days, at the tested concentrations) was “absence of an immunogenic effect”, the “tested Ig levels” value ([2]; between T0 and T7) was “none of the tested Ig fluctuates” and the IL-8 level ([3]; 7-30 days) was “increases”. The IL-1ra serum level [3, 5] was “increase significantly; also recorded: significantly increased serum levels”, the IL-1β serum level [3, 5] was “increase significantly; also recorded: significantly increased serum levels” and the “IL-12 (p70) serum level” value [3, 5] was “increase significantly; also recorded: significantly increased serum levels”. The MIP-1β/CCL4 serum level [3, 5] was “modest variation (increase); also recorded: significantly increased serum levels”, the VEGF serum level [3, 5] was “Increase; also recorded: significantly increased serum levels” and the IL-7 serum level ([3]; 30 days (T30) vs T0, p<0.01) was “decreases in a statistically significant way; also recorded: decreases significantly; also recorded: decrease”. The IL-12 serum level ([3]; 30 days (T30) vs T0, p<0.05) was “increases significantly; also recorded: increase”, the IL-1ra serum level ([3]; 30 days (T30), p<0.05) was “increase” and the IL-1β serum level ([3]; 30 days (T30), p<0.05) was “increase”. For the same substance, the VEGF serum level ([3]; 30 days (T30), p<0.05) was “higher levels; also recorded: increase”, the “serum parameters, not-treated (T0) vs 1 day after treatment (T1)” value ([3]; T1, acute inflammatory reaction) was “None of the analysed parameters showed statistically significant differences” and the PDGFbb level ([3]; after treatment) was “increasing”. For the same substance, the b-FGF level ([3]; after treatment) was “increasing”, the “most of the serum parameters (except for IP-10/CXCL10) compared with T0” value ([3]; first hour after treatment (T30-45 min)) was “increased” and the “IL-2, IL-10, IL-15, GM-CSF and MCP-1/CCL2 serum levels” value ([3]; in vivo) was “below the detection limits”. The MIP-1α level ([3]; with respect to basal levels, within the 1st and 7th days) was “modest variation (increase)”, the “cases with decrease in hip pain” value ([4]; CIVIQ-20 question 1, after 3 or 4 treatments) was 14% and the “cases with better condition during routine work activity” value ([4]; CIVIQ-20 question 2) was 75%. For the same substance, the better sleeping conditions ([4]; CIVIQ-20 question 3) was 37%, the “Remaining standing for a long time, improves” value ([4]; CIVIQ-20 question 4a) was 87% and the Crouching kneeling down ([4]; CIVIQ-20 question 4c) was “Improves”. The “Traveling by car, bus, plane, improves” value ([4]; CIVIQ-20 question 4e) was 85%, the “Performing housekeeping tasks, improves” value ([4]; CIVIQ-20 question 4f) was 85% and the “Going out at night, improves” value ([4]; CIVIQ-20 question 4g) was 85%. For the same substance, the “Embarrassment in showing off the legs, improves” value ([4]; CIVIQ-20 question 5e) was 90%, the “Not feeling like going out, improves” value ([4]; CIVIQ-20 question 5i) was 75% and the “Morning fatigue, improves” value ([4]; CIVIQ-20 question 5h) was 95%. For the same substance, the “cases with improved quality of life overall” value ([4]; answers after vs before treatment) was 87%.
